Activity calls are given as the source filed them. The calls are words filed in the database; no cut-off is given here.
Assays:
Activated CDC42 kinase 1 = Activated CDC42 kinase 1 (Homo sapiens, UniProt Q07912); assay: Inhibition of ACK1 (unknown origin) by radiometric biochemical kinase assay
[1] = biological target: T1, Mitogen-activated protein kinase kinase kinase kinase 2 (Homo sapiens, UniProt Q12851); assay: Inhibition of GCK (unknown origin) by radiometric biochemical kinase assay
T1 sequence (Q12851 whole entry): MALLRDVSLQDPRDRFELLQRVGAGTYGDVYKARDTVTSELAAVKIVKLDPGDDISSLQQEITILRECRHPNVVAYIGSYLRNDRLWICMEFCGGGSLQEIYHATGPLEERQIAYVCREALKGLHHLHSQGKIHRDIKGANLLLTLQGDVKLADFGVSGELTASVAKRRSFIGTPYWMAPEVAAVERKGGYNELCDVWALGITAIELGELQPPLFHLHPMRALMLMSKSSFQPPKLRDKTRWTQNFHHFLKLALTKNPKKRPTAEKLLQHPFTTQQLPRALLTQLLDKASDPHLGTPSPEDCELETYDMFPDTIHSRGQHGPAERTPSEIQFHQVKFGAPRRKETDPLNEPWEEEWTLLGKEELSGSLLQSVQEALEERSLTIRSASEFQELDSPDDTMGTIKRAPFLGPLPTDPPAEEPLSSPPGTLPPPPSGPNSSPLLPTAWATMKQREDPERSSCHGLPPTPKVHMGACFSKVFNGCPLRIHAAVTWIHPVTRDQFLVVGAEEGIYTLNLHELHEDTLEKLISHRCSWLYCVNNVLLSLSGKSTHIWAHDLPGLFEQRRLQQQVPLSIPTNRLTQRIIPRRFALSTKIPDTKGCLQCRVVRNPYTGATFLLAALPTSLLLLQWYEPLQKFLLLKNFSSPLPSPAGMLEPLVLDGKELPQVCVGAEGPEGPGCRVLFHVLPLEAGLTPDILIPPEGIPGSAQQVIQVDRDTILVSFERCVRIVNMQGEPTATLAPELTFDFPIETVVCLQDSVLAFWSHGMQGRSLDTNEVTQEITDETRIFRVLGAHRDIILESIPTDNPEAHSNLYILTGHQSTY

[2] = Growth inhibition of parental mouse BA/F3 cells after 72 hrs by celltiter-glo assay; assay type: cell-based, BaF3
Mus musculus = species: Mus musculus; assay: Inhibition of ACK1/GCK in mouse BA/F3 cells assessed as reduction in NRAS-G12D mutant-mediated cell proliferation after 72 hrs by celltiter-glo assay; assay type: cell-based
OCI-AML-3 [3] = assay: Growth inhibition of human OCI-AML3 cells harboring NRAS-Q61L mutant after 72 hrs by celltiter-glo assay; assay type: functional; details: OCI-AML-3, 72 h
[4] = Growth inhibition of parental human U937 cells after 72 hrs by celltiter-glo assay; assay type: cell-based, U-937
[5] = Metabolic stability in human liver microsomes assessed as compound remaining at 1 uM after 30 mins; assay type: ADME, microsome; details: read-out: Stability
[6] = Metabolic stability in dog liver microsomes assessed as compound remaining at 1 uM after 30 mins; assay type: ADME, Canis lupus familiaris, microsome; details: read-out: Stability
[7] = Metabolic stability in rat liver microsomes assessed as compound remaining at 1 uM after 30 mins; assay type: ADME, microsome; details: read-out: Stability
[8] = Metabolic stability in mouse liver microsomes assessed as compound remaining at 1 uM after 30 mins; assay type: ADME, microsome; details: read-out: Stability
CYP1A2 = biological target: T2, CYP1A2 (Homo sapiens, UniProt P05177); assay: Inhibition of CYP1A2 (unknown origin) assessed as activity remaining at 10 uM relative to control; assay type: ADME; details: read-out: Activity
T2 sequence (P05177 whole entry): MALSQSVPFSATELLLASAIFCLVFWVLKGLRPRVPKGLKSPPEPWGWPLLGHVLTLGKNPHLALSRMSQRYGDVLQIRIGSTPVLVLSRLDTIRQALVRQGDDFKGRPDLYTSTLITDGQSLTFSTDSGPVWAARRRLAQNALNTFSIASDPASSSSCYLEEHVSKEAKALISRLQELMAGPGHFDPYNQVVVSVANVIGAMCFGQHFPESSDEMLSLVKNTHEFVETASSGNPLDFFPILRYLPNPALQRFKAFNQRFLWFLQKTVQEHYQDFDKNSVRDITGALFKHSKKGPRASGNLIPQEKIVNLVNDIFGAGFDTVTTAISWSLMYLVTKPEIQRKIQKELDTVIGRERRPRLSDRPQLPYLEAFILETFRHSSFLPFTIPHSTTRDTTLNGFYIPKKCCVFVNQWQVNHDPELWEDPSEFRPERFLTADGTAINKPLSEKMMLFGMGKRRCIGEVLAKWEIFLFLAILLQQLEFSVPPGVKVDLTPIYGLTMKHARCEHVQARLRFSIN

CYP2C9 = CYP2C9 (Homo sapiens, UniProt P11712); assay: Inhibition of CYP2C9 (unknown origin) assessed as activity remaining at 10 uM relative to control; assay type: ADME; details: read-out: Activity
CYP2C9, sequence (P11712 whole entry): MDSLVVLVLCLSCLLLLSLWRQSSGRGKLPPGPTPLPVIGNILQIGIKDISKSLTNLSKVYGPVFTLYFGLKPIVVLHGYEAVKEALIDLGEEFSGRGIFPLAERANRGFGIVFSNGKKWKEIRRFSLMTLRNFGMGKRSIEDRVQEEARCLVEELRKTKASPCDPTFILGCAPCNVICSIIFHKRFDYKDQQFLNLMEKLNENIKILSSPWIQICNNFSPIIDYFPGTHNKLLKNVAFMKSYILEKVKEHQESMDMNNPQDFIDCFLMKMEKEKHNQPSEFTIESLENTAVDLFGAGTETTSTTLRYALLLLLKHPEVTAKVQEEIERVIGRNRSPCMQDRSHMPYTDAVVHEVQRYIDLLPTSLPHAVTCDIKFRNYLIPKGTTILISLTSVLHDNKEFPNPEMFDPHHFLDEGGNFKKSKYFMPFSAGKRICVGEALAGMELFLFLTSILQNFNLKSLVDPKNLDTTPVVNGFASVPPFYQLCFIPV

CYP2D6 = CYP2D6 (Homo sapiens, UniProt P10635); assay: Inhibition of CYP2D6 (unknown origin) assessed as activity remaining at 10 uM relative to control; assay type: ADME; details: read-out: Activity
CYP2D6, sequence (P10635 whole entry): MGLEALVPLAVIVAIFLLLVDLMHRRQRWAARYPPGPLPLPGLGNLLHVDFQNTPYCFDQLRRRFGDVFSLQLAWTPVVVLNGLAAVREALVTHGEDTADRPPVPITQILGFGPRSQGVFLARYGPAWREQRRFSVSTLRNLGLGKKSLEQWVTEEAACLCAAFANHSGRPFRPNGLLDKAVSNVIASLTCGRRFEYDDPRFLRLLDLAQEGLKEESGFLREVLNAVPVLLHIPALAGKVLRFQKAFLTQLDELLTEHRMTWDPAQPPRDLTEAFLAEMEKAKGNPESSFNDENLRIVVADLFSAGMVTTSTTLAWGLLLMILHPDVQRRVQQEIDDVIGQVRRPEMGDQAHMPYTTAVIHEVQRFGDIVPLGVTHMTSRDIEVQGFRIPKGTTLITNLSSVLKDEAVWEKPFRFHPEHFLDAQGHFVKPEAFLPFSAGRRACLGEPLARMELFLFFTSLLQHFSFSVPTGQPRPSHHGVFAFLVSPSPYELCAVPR

CYP3A4 = CYP3A4 (Homo sapiens, UniProt P08684); assay: Inhibition of CYP3A4 (unknown origin) assessed as activity remaining at 10 uM relative to control; assay type: ADME; details: read-out: Activity
CYP3A4, sequence (P08684 whole entry): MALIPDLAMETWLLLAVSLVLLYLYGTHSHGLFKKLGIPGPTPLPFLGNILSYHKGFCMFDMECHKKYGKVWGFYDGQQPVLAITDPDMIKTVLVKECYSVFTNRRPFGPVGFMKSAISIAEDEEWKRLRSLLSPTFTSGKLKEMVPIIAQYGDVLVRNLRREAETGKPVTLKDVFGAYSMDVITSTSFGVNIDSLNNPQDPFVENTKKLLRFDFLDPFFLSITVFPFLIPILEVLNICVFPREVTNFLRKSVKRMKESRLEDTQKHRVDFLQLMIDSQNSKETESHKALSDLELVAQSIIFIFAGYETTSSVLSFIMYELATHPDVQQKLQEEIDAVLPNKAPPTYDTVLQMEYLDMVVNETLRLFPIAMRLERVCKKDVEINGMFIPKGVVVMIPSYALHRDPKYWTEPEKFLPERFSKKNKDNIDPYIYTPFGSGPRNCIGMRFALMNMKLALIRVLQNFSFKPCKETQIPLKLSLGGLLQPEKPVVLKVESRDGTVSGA

OCI-AML-3 [9] = assay: Growth inhibition of ACK1/GCK knockdown human OCI-AML3 cells harboring NRAS-Q61L mutant at 0.05 uM after 72 hrs by celltiter-glo assay; assay type: functional, cell-based
OCI-AML-3 [10] = assay: Growth inhibition of ACK1/GCK knockdown human OCI-AML3 cells harboring NRAS-Q61L mutant at 0.2 uM after 72 hrs by celltiter-glo assay; assay type: functional, cell-based
OCI-AML-3 [11] = assay: Growth inhibition of ACK1/GCK knockdown human OCI-AML3 cells harboring NRAS-Q61L mutant at 0.5 uM after 72 hrs by celltiter-glo assay; assay type: functional, cell-based

Activated CDC42 kinase 1, sequence (Q07912 whole entry): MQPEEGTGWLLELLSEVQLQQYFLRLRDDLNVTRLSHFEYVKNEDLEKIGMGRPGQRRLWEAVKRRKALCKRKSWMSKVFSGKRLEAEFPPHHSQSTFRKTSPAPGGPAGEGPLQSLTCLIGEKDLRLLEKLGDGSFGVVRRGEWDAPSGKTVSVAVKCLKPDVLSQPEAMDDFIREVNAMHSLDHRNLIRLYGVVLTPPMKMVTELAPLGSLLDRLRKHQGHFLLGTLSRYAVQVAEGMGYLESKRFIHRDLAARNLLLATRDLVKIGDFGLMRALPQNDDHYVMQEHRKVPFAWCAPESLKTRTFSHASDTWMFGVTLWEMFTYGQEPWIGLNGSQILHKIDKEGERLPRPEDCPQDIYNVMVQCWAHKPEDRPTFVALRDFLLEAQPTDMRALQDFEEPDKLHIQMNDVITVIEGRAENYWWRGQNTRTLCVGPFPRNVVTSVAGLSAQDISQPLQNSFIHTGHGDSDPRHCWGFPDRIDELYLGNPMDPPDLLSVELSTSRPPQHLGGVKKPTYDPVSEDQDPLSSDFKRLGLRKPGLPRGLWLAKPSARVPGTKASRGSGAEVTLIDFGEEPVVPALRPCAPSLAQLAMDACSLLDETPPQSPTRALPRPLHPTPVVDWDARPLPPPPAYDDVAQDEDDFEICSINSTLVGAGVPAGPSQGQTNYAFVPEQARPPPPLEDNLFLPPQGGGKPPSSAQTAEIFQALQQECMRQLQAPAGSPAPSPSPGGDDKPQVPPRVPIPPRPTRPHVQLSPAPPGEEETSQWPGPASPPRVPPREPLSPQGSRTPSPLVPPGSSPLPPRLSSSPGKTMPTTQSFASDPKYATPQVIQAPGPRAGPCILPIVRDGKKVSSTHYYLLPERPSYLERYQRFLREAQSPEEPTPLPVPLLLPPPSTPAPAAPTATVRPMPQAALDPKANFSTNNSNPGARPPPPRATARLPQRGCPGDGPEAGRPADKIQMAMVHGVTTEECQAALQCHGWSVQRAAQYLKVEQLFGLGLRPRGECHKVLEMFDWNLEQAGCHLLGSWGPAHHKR

SMILES	IC50 (Activated CDC42 kinase 1) [µM]	IC50 [1] [µM]	GI50 at 72 h [2] [µM]	GI50 (Mus musculus) [µM]	GI50 (OCI-AML-3 [3]) [µM]	GI50 at 72 h [4] [µM]	remaining at 0.5 h, 1 µM [5] [%]	remaining at 0.5 h, 1 µM [6] [%]	remaining at 0.5 h, 1 µM [7] [%]	remaining at 0.5 h, 1 µM [8] [%]	activity at 10 µM (CYP1A2) [%]	activity at 10 µM (CYP2C9) [%]	activity at 10 µM (CYP2D6) [%]	activity at 10 µM (CYP3A4) [%]	growth inhibition (GI) (OCI-AML-3 [9])	growth inhibition (GI) (OCI-AML-3 [10])	growth inhibition (GI) (OCI-AML-3 [11])
CCN1CCN(c2ccc(Nc3ncc4c(n3)N(C)C(=O)N(c3cc(NC(=O)c5cccc(C(F)(F)F)c5)ccc3C)C4)cc2)CC1	0.02	0.008	0.559	0.083	0.04	0.839	46.7	21.3	19.7	20.9	92.1	34.3	79.8	> 100	Active	–	–
Cc1cc(Nc2ncc3c(n2)N(C)C(=O)N(c2cc(NC(=O)c4ccc(CN5CCC(N(C)C)C5)c(C(F)(F)F)c4)ccc2C)C3)n(C)n1 (stereo not given)	0.011	0.017	0.509	0.123	–	–	–	–	–	–	–	–	–	–	–	–	–
CCN1CCN(c2ccc(Nc3ncc4c(n3)N(C)C(=O)N(c3cc(NC(=O)c5cccc(C(F)(F)F)c5)ccc3C)C4)cn2)CC1	0.028	0.007	0.264	0.071	0.03	1.41	29.8	21.4	19.2	21.2	89.7	23	68	> 100	Active	–	–
Cc1ccc(Nc2ncc3c(n2)N(C)C(=O)N(c2cc(NC(=O)c4ccc(N5CCN(C)CC5)c(C(F)(F)F)c4)ccc2C)C3)cn1	0.028	0.01	0.685	0.341	–	–	–	–	–	–	–	–	–	–	–	–	–
Cc1ccc(Nc2ncc3c(n2)N(C)C(=O)N(c2cc(NC(=O)c4ccc(CN5CCN(C)CC5)c(C(F)(F)F)c4)ccc2C)C3)cn1	0.026	0.005	0.818	0.316	–	–	–	–	–	–	–	–	–	–	–	–	–
Cc1ccc(NC(=O)c2cccc(C(F)(F)F)c2)cc1N1Cc2cnc(NC3CC3)nc2N(C)C1=O	0.035	0.042	5.06	0.547	–	–	–	–	–	–	–	–	–	–	–	–	–
Cc1ccc(Nc2ncc3c(n2)N(C)C(=O)N(c2cc(NC(=O)c4cc(N5CCC(O)CC5)cc(C(F)(F)F)c4)ccc2C)C3)cn1	0.04	0.072	0.671	0.118	0.143	2.18	–	–	–	–	–	–	–	–	–	Active	–
Cc1ccc(NC(=O)c2cccc(C(F)(F)F)c2)cc1N1Cc2cnc(Nc3ccccc3)nc2N(C)C1=O	0.037	0.047	1.79	0.38	–	–	–	–	–	–	–	–	–	–	–	–	–
CC(=O)N1CCN(c2ccc(Nc3ncc4c(n3)N(C)C(=O)N(c3cc(NC(=O)c5ccc(CN6CCC(N(C)C)C6)c(C(F)(F)F)c5)ccc3C)C4)cn2)CC1 (stereo not given)	0.025	0.016	0.187	0.041	–	–	–	–	–	–	–	–	–	–	–	–	–
Cc1ccc(NC(=O)c2cccc(C(F)(F)F)c2)cc1N1Cc2cnc(NC3CCCCC3)nc2N(C)C1=O	0.06	0.925	5.22	2.45	–	–	–	–	–	–	–	–	–	–	–	–	–
Cc1ccc(Nc2ncc3c(n2)N(C)C(=O)N(c2cc(NC(=O)c4ccccc4)ccc2C)C3)cn1	0.021	1.08	2.7	1.47	–	–	–	–	–	–	–	–	–	–	–	–	–
Cc1ccc(NC(=O)c2cccc(C(F)(F)F)c2)cc1N1Cc2cnc(NCCO)nc2N(C)C1=O	0.021	0.033	3.29	0.29	0.367	8.53	–	–	–	–	–	–	–	–	–	–	Active
Cc1ccc(NC(=O)c2cccc(C(F)(F)F)c2)cc1N1Cc2cnc(Nc3cnn(C)c3)nc2N(C)C1=O	0.02	0.006	0.352	0.1	0.042	1.12	78.8	71.3	98.4	73.3	88	42.9	78.8	> 100	Active	–	–
Cc1ccc(NC(=O)c2ccc(CN3CCC(N(C)C)C3)c(C(F)(F)F)c2)cc1N1Cc2cnc(Nc3cnn(C)c3)nc2N(C)C1=O (stereo not given)	0.025	0.008	0.414	0.068	–	–	–	–	–	–	–	–	–	–	–	–	–
Cc1ccc(Nc2ncc3c(n2)N(C)C(=O)N(c2cc(NC(=O)c4cc(N5CCOCC5)cc(C(F)(F)F)c4)ccc2C)C3)cn1	0.026	0.045	1.65	0.284	0.26	2.81	–	–	–	–	–	–	–	–	–	Active	–
Cc1ccc(Nc2ncc3c(n2)N(C)C(=O)N(c2cc(NC(=O)c4cc(-n5cnc(C)c5)cc(C(F)(F)F)c4)ccc2C)C3)cn1	0.053	0.027	> 5	0.238	–	–	–	–	–	–	–	–	–	–	–	–	–
CCN1CCN(C(=O)c2ccc(Nc3ncc4c(n3)N(C)C(=O)N(c3cc(NC(=O)c5ccc(CN6CCC(N(C)C)C6)c(C(F)(F)F)c5)ccc3C)C4)cn2)CC1 (stereo not given)	0.021	0.014	0.704	0.094	–	–	–	–	–	–	–	–	–	–	–	–	–

Reference: ChEMBL document CHEMBL4196175, “First SAR Study for Overriding NRAS Mutant Driven Acute Myeloid Leukemia” (J Med Chem, 2018)
